Data: patent US20160075653A1, “NEMATICIDAL N-(PHENYLCYCLOALKYL)CARBOXAMIDES AND N-(PHENYLCYCLOALKYL)THIOCARBOXAMIDES” (BAYER CROPSCIENCE AKTIENGESELLSCHAFT, priority 2013, published 2016)

Assay: Measurement of log P values by HPLC on reversed phase columns (methods [a] pH 2.3, [b] pH 2.7, [c] pH 7.8)
Type: physicochemical
Conditions: HPLC reversed phase
Procedure: Measurement of log P-Values:
Measurement of log P Values was Performed According EEC Directive 79/831 Annex V.A8 by HPLC (High Performance Liquid
Chromatography) on reversed phase columns with the following methods: ^[a] Measurement was done at pH 2.3 with 0.1% phosphoric acid and acetonitrile as eluent with a linear gradient from 10% acetonitrile to 95% acetonitrile. ^[b] measurement of LC-MS was done at pH 2.7 with 0.1% formic acid in water and with acetonitrile (contains 0.1% formic acid) as eluent with a linear gradient from 10% acetonitrile to 95% acetonitrile. ^[c] Measurement with LC-MS was done at pH 7.8 with 0.001 molar ammonium hydrogen carbonate solution in water as eluent with a linear gradient from 10% acetonitrile to 95% acetonitrile.
Calibration was done with linear alkan-2-ones (with 3 to 16 carbon atoms) with known log P-values (measurement of log P values using retention times with linear interpolation between successive alkanones). Lambda-max-values were determined using UV-spectra from 200 nm to 400 nm and the peak values of the chromatographic signals.

Row | SMILES | logP (method [b] (pH 2.7)) | logP (method [c] pH 7.8)
1 | O=C(N[C@@H]1CCC[C@@H]1c1ccc(C(F)(F)F)cc1)c1cccnc1 (relative stereo) [Example 298] | 2.46^[b] | 2.46^[c];
2 | O=C(N[C@@H]1CCC[C@@H]1c1ccc(C(F)(F)F)cc1)c1ccccc1C(F)(F)F (relative stereo) [Example 302] | 3.83^[b] | 3.79^[c];
3 | O=C(N[C@@H]1CCC[C@@H]1c1ccc(C(F)(F)F)cc1)c1ccccc1Br (relative stereo) [Example 303] | 3.73^[b] | 3.68^[c];
4 | O=C(N[C@@H]1CCC[C@@H]1c1ccc(C(F)(F)F)cc1)c1c(F)cccc1F (relative stereo) [Example 304] | 3.51^[b] | 3.47^[c];
5 | O=C(N[C@@H]1CCC[C@@H]1c1ccc(C(F)(F)F)cc1)c1ccccc1[N+](=O)[O-] (relative stereo) [Example 306] | 3.31^[b] | 3.27^[c];
6 | CC(C)Oc1ccc([C@H]2CCC[C@H]2NC(=O)c2ccccc2Cl)cc1 (relative stereo) [Example 317] | 3.74^[b] | 3.73^[c];
7 | CC(C)Oc1ccc([C@H]2CCC[C@H]2NC(=O)c2ccccc2C(F)(F)F)cc1 (relative stereo) [Example 325] | 3.90^[b] | 3.84^[c];
8 | CC(C)Oc1ccc([C@H]2CCC[C@H]2NC(=O)c2cccnc2Cl)cc1 (relative stereo) [Example 326] | 3.06^[b] | 2.99^[c];
9 | CC(C)Oc1ccc([C@H]2CCC[C@H]2NC(=O)c2ccccc2Br)cc1 (relative stereo) [Example 327] | 3.81^[b] | 3.74^[c];
10 | CC(C)Oc1ccc([C@H]2CCC[C@H]2NC(=O)c2c(F)cccc2F)cc1 (relative stereo) [Example 329] | 3.55^[b] | 3.49^[c];
11 | O=C(N[C@@H]1CCC[C@@H]1c1ccc(C(F)(F)F)cc1)c1ncccc1C(F)(F)F (relative stereo) [Example 331] | 3.36^[b] | 3.28^[c];
12 | O=C(N[C@@H]1CCC[C@@H]1c1ccccc1F)c1ccccc1I (relative stereo) [Example 332] | 3.30^[b] | 3.28^[c];
13 | CC(C)Oc1ccc([C@H]2CCC[C@H]2NC(=O)c2ccccc2I)cc1 (relative stereo) [Example 333] | 3.92^[b] | 3.89^[c];
14 | CC(C)Oc1ccc([C@H]2CCC[C@H]2NC(=O)c2ccccn2)cc1 (relative stereo) [Example 334] | 2.41^[b] | 2.46^[c];
15 | CC(C)Oc1ccc([C@H]2CCC[C@H]2NC(=O)c2nccnc2Cl)cc1 (relative stereo) [Example 335] | 3.23^[b] | 3.21^[c];
16 | O=C(N[C@@H]1CCC[C@@H]1c1ccccc1F)c1nccnc1Cl (relative stereo) [Example 336] | 2.61^[b] | 2.55^[c];
17 | CC(C)Oc1ccc([C@H]2CCC[C@H]2NC(=O)c2ccc(I)s2)cc1 (relative stereo) [Example 338] | 4.43^[b] | 4.27^[c];
18 | O=C(N[C@@H]1CCC[C@@H]1c1ccccc1F)c1ccccn1 (relative stereo) [Example 339] | 1.86^[b] | 1.95^[c];

Row | SMILES | logP (method [b] (pH 2.7)) | logP (method [c] pH 7.8)
19 | CC(C)Oc1ccc([C@H]2CCC[C@H]2NC(=O)c2nccnc2C(F)(F)F)cc1 (relative stereo) [Example 340] | 3.62^[b] | 3.55^[c];
20 | O=C(N[C@@H]1CCC[C@@H]1c1ccccc1F)c1nccnc1C(F)(F)F (relative stereo) [Example 341] | 3.00^[b] | 2.94^[c];
21 | Cc1nc(C(F)(F)F)c(C(=O)N[C@@H]2CCC[C@@H]2c2ccc(OC(C)C)cc2)s1 (relative stereo) [Example 342] | 3.80^[b] | 3.71^[c];
22 | O=C(N[C@@H]1CCC[C@@H]1c1ccc(C(F)(F)F)cc1)c1sccc1I (relative stereo) [Example 360] | 4.21^[b] | 4.16^[c];
23 | O=C(N[C@@H]1CC[C@H]1c1ccc(F)cc1C(F)(F)F)c1c(F)cccc1F (relative stereo) [Example 492] | 3.38^[b] | 
24 | O=C(N[C@@H]1CC[C@@H]1c1ccc(F)cc1C(F)(F)F)c1ccc(Cl)cc1Cl (relative stereo) [Example 506] | 3.85^[b] | 
25 | O=C(N[C@@H]1CC[C@H]1c1ccc(F)cc1C(F)(F)F)c1ccc(Cl)cc1 (relative stereo) [Example 507] | 3.94^[b] | 
26 | O=C(N[C@@H]1CC[C@@H]1c1ccc(F)cc1C(F)(F)F)c1ccc(Cl)cc1 (relative stereo) [Example 508] | 3.62^[b] | 
27 | O=C(N[C@@H]1CC[C@H]1c1ccc(F)cc1C(F)(F)F)c1ccccc1Cl (relative stereo) [Example 512] | 3.56^[b] | 
28 | O=C(N[C@@H]1CC[C@H]1c1ccc(F)cc1C(F)(F)F)c1nccnc1Cl (relative stereo) [Example 525] | 3.16^[b] | 
29 | O=C(N[C@@H]1CC[C@H]1c1ccc(F)cc1C(F)(F)F)c1cccnc1 (relative stereo) [Example 526] | 2.41^[b] | 
30 | O=C(N[C@@H]1CC[C@@H]1c1cc(F)ccc1C(F)(F)F)c1ncc(C(F)(F)F)cc1Cl (relative stereo) [Example 529] | 3.91^[b] | 
31 | Cc1nc(C(F)(F)F)c(C(=O)N[C@@H]2CC[C@H]2c2ccc(F)cc2C(F)(F)F)s1 (relative stereo) [Example 530] | 3.60^[b] | 
32 | O=C(N[C@@H]1CC[C@@H]1c1ccccc1Cl)c1cccnc1Cl (relative stereo) [Example 534] | 2.40^[b] | 
33 | O=C(N[C@@H]1CC[C@@H]1c1c(F)cccc1C(F)(F)F)c1ccc(Cl)cc1Cl (relative stereo) [Example 535] | 3.93^[b] | 
34 | O=C(N[C@@H]1CC[C@H]1c1ccccc1Cl)c1cccnc1 (relative stereo) [Example 539] | 2.06^[b] | 
35 | O=C(N[C@@H]1CC[C@@H]1c1cc(F)ccc1C(F)(F)F)c1ccc(Cl)cc1Cl (relative stereo) [Example 557] | 3.85^[b] | 
36 | O=C(N[C@@H]1CC[C@@H]1c1c(F)cccc1C(F)(F)F)c1cccnc1 (relative stereo) [Example 562] | 2.16^[b] | 

Results, then the compound that gave them:

Row | logP (method [b] (pH 2.7)) | logP (method [c] pH 7.8) | SMILES
37 | 3.04^[b] | 2.98^[c]; | O=C(N[C@@H]1CCC[C@@H]1c1ccc(C(F)(F)F)cc1)c1cccnc1Cl (relative stereo) [Example 315]
38 | 3.12^[b] | 3.08^[c]; | O=C(N[C@@H]1CCC[C@@H]1c1ccccc1F)c1ccccc1Cl (relative stereo) [Example 316]
39 | 3.30^[b] | 3.25^[c]; | CC(C)Oc1ccc([C@H]2CCC[C@H]2NC(=O)c2ccccc2[N+](=O)[O-])cc1 (relative stereo) [Example 318]
40 | 3.18^[b] | 3.14^[c]; | O=C(N[C@@H]1CCC[C@@H]1c1ccccc1F)c1ccccc1Br (relative stereo) [Example 319]
41 | 2.95^[b] | 2.90^[c]; | O=C(N[C@@H]1CCC[C@@H]1c1ccccc1F)c1c(F)cccc1F (relative stereo) [Example 328]
42 | 3.55^[b] | 3.45^[c]; | O=C(N[C@@H]1CCC[C@@H]1c1ccc(C(F)(F)F)cc1)c1nccnc1C(F)(F)F (relative stereo) [Example 330]
43 | 3.18^[b] | 3.07^[c]; | Cc1nc(C(F)(F)F)c(C(=O)N[C@@H]2CCC[C@@H]2c2ccccc2F)s1 (relative stereo) [Example 343]
44 | 3.42^[b] |  | O=C(N[C@@H]1CC[C@H]1c1ccc(F)cc1C(F)(F)F)c1ccccc1 (relative stereo) [Example 504]
45 | 4.08^[b] |  | O=C(N[C@@H]1CC[C@H]1c1ccc(F)cc1C(F)(F)F)c1ccc(Cl)cc1Cl (relative stereo) [Example 510]
46 | 3.65^[b] |  | O=C(N[C@@H]1CC[C@@H]1c1ccc(F)cc1C(F)(F)F)c1cccc(Cl)c1 (relative stereo) [Example 511]
47 | 3.10^[b] |  | O=C(N[C@@H]1CC[C@H]1c1ccc(F)cc1C(F)(F)F)c1ccccc1[N+](=O)[O-] (relative stereo) [Example 521]
48 | 2.93^[b] |  | O=C(N[C@@H]1CC[C@H]1c1ccc(F)cc1C(F)(F)F)c1cccnc1Cl (relative stereo) [Example 524]
49 | 3.63^[b] |  | O=C(N[C@@H]1CC[C@@H]1c1cc(F)ccc1C(F)(F)F)c1ccc(Cl)cc1 (relative stereo) [Example 527]
50 | 3.35^[b] |  | Cc1nc(C(F)(F)F)c(C(=O)N[C@@H]2CC[C@@H]2c2ccc(F)cc2C(F)(F)F)s1 (relative stereo) [Example 531]
51 | 3.65^[b] |  | O=C(N[C@@H]1CC[C@H]1c1ccccc1Cl)c1cccnc1Cl (relative stereo) [Example 533]
52 | 3.72^[b] |  | O=C(N[C@@H]1CC[C@@H]1c1c(F)cccc1C(F)(F)F)c1ccc(Cl)cc1 (relative stereo) [Example 536]
53 | 2.92^[b] |  | O=C(N[C@@H]1CC[C@H]1c1ccccc1Cl)c1ccccc1[N+](=O)[O-] (relative stereo) [Example 547]
54 | 4.26^[b] |  | O=C(N[C@@H]1CC[C@@H]1c1c(F)cccc1C(F)(F)F)c1cccc(Cl)c1 (relative stereo) [Example 552]
55 | 3.34^[b] |  | Cc1nc(C(F)(F)F)c(C(=O)N[C@@H]2CC[C@H]2c2ccccc2Cl)s1 (relative stereo) [Example 554]
